molecular target: T1, EGFR T790M/L858R (NCI-H1975 cells) (Homo sapiens, UniProt P00533, L858R/T790M); assay: EGFR (L858R) degradation analysis, Total EGFR (L858R) HTRF, NCI-H1975 cells; assay type: cell-based; details: 6 hours
T1 construct: NCI-H1975 (harboring EGFR heterozygous T790M/L858R mutations); host or cells: NCI-H1975
Excerpt: NCI-H1975 (harboring EGFR heterozygous T790M/L858R mutations) and NCI-H3255 (harboring EGFR heterozygous L858R mutation) were purchased from ATCC and NCI, respectively. NCI-H1975+CS (harboring EGFR heterozygous T/790M/L858R/C797S mutations) was generated using CRISPR technology to introduce the additional C797S mutation by Horizon Discovery. RPMI 1640 no-phenol red medium and fetal bovine serum (FBS) were purchased from Gibco (Grand Island, NY, USA). Cell culture flasks and 384-well microplates were acquired from VWR (Radnor, PA, USA). Total EGFR (L858R) HTRF assay kits were purchased from Cisbio (Bedford, MA, USA).
Degradation of EGFR protein containing L858R mutation was determined based on quantification of FRET signal using Total EGFR (L858R) HTRF assay kit. Test compounds were added to the 384-well plate from a top concentration of 10 μM with 11 points, half log titration in duplicates. NCI-H1975, NCI-H1975+CS or NCI-H3255 cells were added into 384-well plates at a cell density of 10000, 10000 or 1000 cells per well, respectively. The plates were kept at 37° C. with 5% CO2 for 6 hours. Cells treated in the absence of the test compound were the negative control. Positive control was set by wells containing all reagents but no cells. FRET signal was acquired on EnVision™ Multilabel Reader (PerkinElmer, Santa Clara, CA, USA).

T1 sequence (P00533 25-1210 T790M/L858R): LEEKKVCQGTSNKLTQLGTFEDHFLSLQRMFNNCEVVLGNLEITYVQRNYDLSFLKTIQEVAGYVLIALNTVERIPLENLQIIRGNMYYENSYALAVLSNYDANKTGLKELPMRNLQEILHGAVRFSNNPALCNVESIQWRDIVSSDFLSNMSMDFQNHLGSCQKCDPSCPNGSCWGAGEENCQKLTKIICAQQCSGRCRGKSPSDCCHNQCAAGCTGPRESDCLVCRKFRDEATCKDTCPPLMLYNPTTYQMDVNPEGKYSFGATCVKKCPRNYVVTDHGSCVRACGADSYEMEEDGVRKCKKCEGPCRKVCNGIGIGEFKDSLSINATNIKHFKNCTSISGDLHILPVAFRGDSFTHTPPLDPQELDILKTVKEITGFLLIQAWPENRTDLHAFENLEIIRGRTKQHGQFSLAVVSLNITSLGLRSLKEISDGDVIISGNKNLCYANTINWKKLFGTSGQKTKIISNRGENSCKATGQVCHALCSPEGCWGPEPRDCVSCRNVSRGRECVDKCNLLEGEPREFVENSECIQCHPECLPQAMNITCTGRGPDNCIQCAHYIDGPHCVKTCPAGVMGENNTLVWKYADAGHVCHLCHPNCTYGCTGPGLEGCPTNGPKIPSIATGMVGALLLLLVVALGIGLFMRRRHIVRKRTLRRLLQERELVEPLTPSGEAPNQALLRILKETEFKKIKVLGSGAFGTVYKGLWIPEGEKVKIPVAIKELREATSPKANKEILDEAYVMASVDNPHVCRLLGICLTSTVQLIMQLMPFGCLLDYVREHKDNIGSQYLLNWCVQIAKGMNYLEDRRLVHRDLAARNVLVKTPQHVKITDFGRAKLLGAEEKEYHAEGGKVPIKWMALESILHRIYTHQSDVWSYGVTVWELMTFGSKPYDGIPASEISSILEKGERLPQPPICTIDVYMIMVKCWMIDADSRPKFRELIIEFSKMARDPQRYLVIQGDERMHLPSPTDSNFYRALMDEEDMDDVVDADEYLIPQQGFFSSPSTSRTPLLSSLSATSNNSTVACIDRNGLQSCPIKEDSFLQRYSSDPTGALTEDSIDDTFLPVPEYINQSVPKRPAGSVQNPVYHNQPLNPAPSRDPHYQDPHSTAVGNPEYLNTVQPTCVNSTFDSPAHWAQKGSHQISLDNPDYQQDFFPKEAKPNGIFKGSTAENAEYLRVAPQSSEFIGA

Row | DC50 | Structure (SMILES)
1 | 17 nM | O=C1CCC(Nc2ccc(C3CCN(C(=O)CCCN4CCN(c5ccc(-c6cc(F)c7c(c6)C(=O)N(C(C(=O)Nc6nccs6)c6ncn8c6CCC8)C7)cc5)CC4)CC3)cc2)C(=O)N1 (racemic) [Compound 8, (2RS)-2-(6,7-Dihydro-5H-pyrrolo[1,2-c]imidazol-1-yl)-2-[4-fluoro-1-oxo-6-[4-[4-[4-oxo-4-[4-[4-[[(3RS)-2,6-dioxo-3-piperidyl]amino]phenyl]-1-piperidyl]butyl]piperazin-1-yl]phenyl]isoindolin-2-yl]-N-thiazol-2-yl-acetamide]
2 | 30 nM | O=C1CCC(Nc2ccc(C3CCC(CC(=O)N4CCN(c5ccc(-c6cc(F)c7c(c6)C(=O)N(C(C(=O)Nc6nccs6)c6ncn8c6CCC8)C7)cc5)CC4)CC3)cc2)C(=O)N1 (racemic) [Compound 9, (2RS)-2-(6,7-Dihydro-5H-pyrrolo[1,2-c]imidazol-1-yl)-2-[4-fluoro-1-oxo-6-[4-[4-[2-[4-[4-[[(3RS)-2,6-dioxo-3-piperidyl]amino]phenyl]cyclohexyl]acetyl]piperazin-1-yl]phenyl]isoindolin-2-yl]-N-thiazol-2-yl-acetamide]
3 | 18 nM | O=C1CC[C@@H](Nc2ccc(C3CCN(CC(=O)N4CCN(c5ccc(-c6cc(F)c7c(c6)C(=O)N(C(C(=O)Nc6nccs6)c6ncn8c6CCC8)C7)cc5)CC4)CC3)cc2)C(=O)N1 (stereo partly drawn) [Compound 7, 2-(6,7-dihydro-5H-pyrrolo[1,2-c]imidazol-1-yl)-2-[6-[4-[4-[2-[4-[4-[[(3R)-2,6-dioxo-3-piperidyl]amino]phenyl]-1-piperidyl]acetyl]piperazin-1-yl]phenyl]-4-fluoro-1-oxo-isoindolin-2-yl]-N-thiazol-2-yl-acetamide]
4 | 92 nM | O=C1CCC(Nc2cccc(C3CCN(CC(=O)N4CCN(c5ccc(-c6cc(F)c7c(c6)C(=O)N(C(C(=O)Nc6nccs6)c6ncn8c6CCC8)C7)cc5)CC4)CC3)c2)C(=O)N1 (stereo not shown) [Compound 16, 2-(6,7-dihydro-5H-pyrrolo[1,2-c]imidazol-1-yl)-2-(6-(4-(4-(2-(4-(3-((2,6-dioxopiperidin-3-yl)amino)phenyl)piperidin-1-yl)acetyl)piperazin-1-yl)phenyl)-4-fluoro-1-oxoisoindolin-2-yl)-N-(thiazol-2-yl)acetamide]
5 | 33 nM | O=C1CC[C@@H](Nc2ccc(C3CCN(CC(=O)N4CCC(c5ccc(-c6cc(F)c7c(c6)C(=O)N(C(C(=O)Nc6nccs6)c6ncn8c6CCC8)C7)cc5)CC4)CC3)cc2)C(=O)N1 (stereo partly drawn) [Compound 23, 2-(6,7-dihydro-5H-pyrrolo[1,2-c]imidazol-1-yl)-2-(6-(4-(1-(2-(4-(4-(((R)-2,6-dioxopiperidin-3-yl)amino)phenyl)piperidin-1-yl)acetyl)piperidin-4-yl)phenyl)-4-fluoro-1-oxoisoindolin-2-yl)-N-(thiazol-2-yl)acetamide]
6 | 26 nM | O=C1CCC(Nc2ccc(C3CCN(C(=O)CN4CCC(c5ccc(-c6cc(F)c7c(c6)C(=O)N(C(C(=O)Nc6nccs6)c6ncn8c6CCC8)C7)cc5)CC4)CC3)cc2)C(=O)N1 (stereo not shown) [Compound 26, 2-(6,7-dihydro-5H-pyrrolo[1,2-c]imidazol-1-yl)-2-[6-[4-[1-[2-[4-[4-[(2,6-dioxo-3-piperidyl)amino]phenyl]-1-piperidyl]-2-oxo-ethyl]-4-piperidyl]phenyl]-4-fluoro-1-oxo-isoindolin-2-yl]-N-thiazol-2-yl-acetamide]
7 | 32 nM | O=C1CCC(Nc2ccc(C3CCN(CC(=O)N4CCC(Oc5ccc(-c6cc(F)c7c(c6)C(=O)N(C(C(=O)Nc6nccs6)c6ncn8c6CCC8)C7)cc5)CC4)CC3)cc2)C(=O)N1 (stereo not shown) [Compound 31, 2-(6,7-dihydro-5H-pyrrolo[1,2-c]imidazol-1-yl)-2-[6-[4-[[1-[2-[4-[4-[(2,6-dioxo-3-piperidyl)amino]phenyl]-1-piperidyl]acetyl]-4-piperidyl]oxy]phenyl]-4-fluoro-1-oxo-isoindolin-2-yl]-N-thiazol-2-yl-acetamide]

The next lines start with the compound.

Row | Structure (SMILES) | DC50
8 | O=C1CCC(Oc2ccc(N3CCN(CC(=O)N4CCC(NC(=O)c5ccc(C#Cc6cc(F)c7c(c6)C(=O)N(C(C(=O)Nc6nccs6)c6ncn8c6CCC8)C7)cn5)CC4)CC3)cc2)C(=O)N1 (racemic) [Compound 3, 5-[2-[7-Fluoro-3-oxo-2-[(1RS)-1-(6,7-dihydro-5H-pyrrolo[1,2-c]imidazol-1-yl)-2-oxo-2-(thiazol-2-ylamino)ethyl]isoindolin-5-yl]ethynyl]-N-[1-[2-[4-[4-[[(3RS)-2,6-dioxo-3-piperidyl]oxy]phenyl]piperazin-1-yl]acetyl]-4-piperidyl]pyridine-2-carboxamide] | 4 nM
9 | O=C1CCC(Nc2ccc(C3CCN(CC(=O)N4CCN(c5ccc(-c6cc(Cl)c7cn(C(C(=O)Nc8nccs8)c8ncn9c8CCC9)nc7c6Cl)cc5)CC4)CC3)cc2)C(=O)N1 (racemic) [Compound 61, (2RS)-2-[4,7-Dichloro-6-[4-[4-[2-[4-[4-[[(3RS)-2,6-dioxo-3-piperidyl]amino]phenyl]-1-piperidyl]acetyl]piperazin-1-yl]phenyl]indazol-2-yl]-2-(6,7-dihydro-5H-pyrrolo[1,2-c]imidazol-1-yl)-N-thiazol-2-yl-acetamide] | 112 nM
10 | O=C1CCC(N2Cc3c(OC4CCN(C(=O)CCCN5CCN(c6ccc(-c7ccc8cn(C(C(=O)Nc9nccs9)c9ncn%10c9CCC%10)nc8c7F)cn6)CC5)CC4)cccc3C2=O)C(=O)N1 (racemic) [Compound 62, (2RS)-2-(6,7-Dihydro-5H-pyrrolo[1,2-c]imidazol-1-yl)-2-[7-fluoro-6-[6-[4-[4-oxo-4-[4-[1-oxo-2-[(3RS)-2,6-dioxo-3-piperidyl]isoindolin-4-yl]oxy-1-piperidyl]butyl]piperazin-1-yl]-3-pyridyl]indazol-2-yl]-N-thiazol-2-yl-acetamide] | 19 nM
11 | O=C1CCC(Nc2ccc(C3CCN(CC(=O)N4CCN(c5ccc(-c6ccc7cn(C(C(=O)Nc8nccs8)c8ncn9c8CCC9)nc7c6F)cn5)CC4)CC3)cc2)C(=O)N1 (racemic) [Compound 63, (2RS)-2-(6,7-Dihydro-5H-pyrrolo[1,2-c]imidazol-1-yl)-2-[7-fluoro-6-[6-[4-[2-[4-[4-[[(3RS)-2,6-dioxo-3-piperidyl]amino]phenyl]-1-piperidyl]acetyl]piperazin-1-yl]-3-pyridyl]indazol-2-yl]-N-thiazol-2-yl-acetamide] | 81 nM
12 | O=C1CCC(Nc2ccc(C3CCN(CC(=O)N4CC5(C4)CN(c4ccc(-c6cc(F)c7c(c6)C(=O)N(C(C(=O)Nc6nccs6)c6ncn8c6CCC8)C7)cc4)C5)CC3(F)F)cc2)C(=O)N1 (single isomer, unassigned) [Compound 51, 2-(6,7-dihydro-5H-pyrrolo[1,2-c]imidazol-1-yl)-2-(6-(4-(6-(2-(4-(4-((2,6-dioxopiperidin-3-yl)amino)phenyl)-3,3-difluoropiperidin-1-yl)acetyl)-2,6-diazaspiro[3.3]heptan-2-yl)phenyl)-4-fluoro-1-oxoisoindolin-2-yl)-N-(thiazol-2-yl)acetamide] | 13 nM
13 | O=C1CCC(Nc2ccc(CC(=O)N3CCC(NC(=O)c4ccc(C#Cc5cc(F)c6c(c5)C(=O)N(C(C(=O)Nc5nccs5)c5ncn7c5CCC7)C6)cn4)CC3)cc2)C(=O)N1 (stereo not shown) [Compound 2, 5-[2-[2-[1-(6,7-dihydro-5H-pyrrolo[1,2-c]imidazol-1-yl)-2-oxo-2-(thiazol-2-ylamino)ethyl]-7-fluoro-3-oxo-isoindolin-5-yl]ethynyl]-N-[1-[2-[4-[(2,6-dioxo-3-piperidyl)amino]phenyl]acetyl]-4-piperidyl]pyridine-2-carboxamide] | 7 nM
14 | O=C1CCC(Nc2ccc(C3CCN(CC(=O)N4CCN(c5ccc(-c6cc(F)c7c(c6)C(=O)N(C(C(=O)Nc6nccs6)c6ncn8c6CCC8)C7)cc5)CC4)CC3)cc2F)C(=O)N1 (stereo not shown) [Compound 13, 2-(6,7-dihydro-5H-pyrrolo[1,2-c]imidazol-1-yl)-2-[6-[4-[4-[2-[4-[4-[(2,6-dioxo-3-piperidyl)amino]-3-fluoro-phenyl]-1-piperidyl]acetyl]piperazin-1-yl]phenyl]-4-fluoro-1-oxo-isoindolin-2-yl]-N-thiazol-2-yl-acetamide] | 52 nM
15 | O=C1CCC(Nc2ccc(N3CCC(O)(CC(=O)N4CCN(c5ccc(-c6cc(F)c7c(c6)C(=O)N(C(C(=O)Nc6nccs6)c6ncn8c6CCC8)C7)cc5)CC4)CC3)c(C(F)(F)F)c2)C(=O)N1 (stereo not shown) [Compound 18, 2-(6,7-dihydro-5H-pyrrolo[1,2-c]imidazol-1-yl)-2-(6-(4-(4-(2-(1-(4-((2,6-dioxopiperidin-3-yl)amino)-2-(trifluoromethyl)phenyl)-4-hydroxypiperidin-4-yl)acetyl)piperazin-1-yl)phenyl)-4-fluoro-1-oxoisoindolin-2-yl)-N-(thiazol-2-yl)acetamide] | 46 nM
16 | O=C1CCC(Nc2ccc(C3CCN(CC(=O)N4CCC(Oc5ccc(-c6cc(F)c7c(c6)C(=O)N(C(C(=O)Nc6nccs6)c6ncn8c6CCC8)C7)cc5)CC4)CC3)nc2)C(=O)N1 (stereo not shown) [Compound 36, 2-(6,7-dihydro-5H-pyrrolo[1,2-c]imidazol-1-yl)-2-(6-(4-((1-(2-(4-(5-((2,6-dioxopiperidin-3-yl)amino)pyridin-2-yl)piperidin-1-yl)acetyl)piperidin-4-yl)oxy)phenyl)-4-fluoro-1-oxoisoindolin-2-yl)-N-(thiazol-2-yl)acetamide] | 31 nM

From patent publication US12486290B2, “Isoindolinone and indazole compounds for the degradation of EGFR” (C4 THERAPEUTICS, INC., priority 2019, dated 2025)
